# Laboratory results published in patent US7381748B1, “Compounds and related methods for inhibition of gamma-aminobutyric acid aminotransferase” (Northwestern University, priority 2002, dated 2008).
# Counter-ions that a name gives are not always drawn. Like-named read-outs stand apart in the source and are kept apart here.
# Tests used:
# GABA-AT [1] = molecular target: T1, GABA-AT (Sus scrofa, UniProt P80147); conditions: as substrate of GABA-AT; cited from earlier work
# T1 construct: purchased
# T1 sequence (P80147 29-500): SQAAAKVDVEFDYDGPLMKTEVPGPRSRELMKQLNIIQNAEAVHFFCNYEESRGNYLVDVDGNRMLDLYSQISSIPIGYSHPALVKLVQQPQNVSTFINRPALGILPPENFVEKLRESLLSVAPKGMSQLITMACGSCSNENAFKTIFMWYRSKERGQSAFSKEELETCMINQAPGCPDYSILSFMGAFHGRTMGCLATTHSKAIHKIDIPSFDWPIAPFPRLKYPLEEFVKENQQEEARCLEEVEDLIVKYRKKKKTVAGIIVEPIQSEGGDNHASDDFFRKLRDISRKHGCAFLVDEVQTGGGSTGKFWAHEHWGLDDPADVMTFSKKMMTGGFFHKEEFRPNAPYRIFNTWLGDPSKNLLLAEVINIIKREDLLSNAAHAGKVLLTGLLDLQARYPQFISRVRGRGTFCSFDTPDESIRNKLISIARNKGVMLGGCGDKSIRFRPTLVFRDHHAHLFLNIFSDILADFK
# GABA-AT [2] = molecular target: T1, GABA-AT; conditions: cited from earlier work
# GABA-AT [3] = molecular target: T1, GABA-AT; experiment: Time-dependent inactivation of GABA-AT; format: biochemical
# Text: Fluorine incorporation may also make a corresponding intermediate sufficiently reactive to be trapped by the enzyme. While the cis isomer is shown in Scheme 6.
# Then a secondary plot of half-life versus the reciprocal of inactivator concentration was obtained to determine KI and kinact.
smiles,measurement,setting,value
"NCCCC(=O)O [GABA, γ-aminobutyric acid]",Km,GABA-AT [1],2400 µM
same,kcat,GABA-AT [1],0.817 s⁻¹
"C=C1C[C@H](C(=O)O)C[C@@H]1N [Compound 7, 3β-Amino-4-methylenylcyclopentane-1β-carboxylic acid]",GABA-AT inactivation (in words),GABA-AT [2]; 2-mercaptoethanol added to the incubation mixture,no inactivation was observed
same,GABA-AT inactivation (in words),GABA-AT [2]; no 2-mercaptoethanol added,inactivated GABA-AT
"NC1CC(C(=O)O)C/C1=C\F [Compound 20, (E)-(1S, 3S)-3-Amino-4-fluoromethylenyl-1-cyclopentanoic acid, hydrochloride salt]",time-dependent inhibition of GABA-AT (in words),GABA-AT [3],potent time-dependent inhibitors of GABA-AT
"NC1CC(C(=O)O)C/C1=C/F [Compound 22, (Z)-(1S, 3S)-3-Amino-4-fluoromethylenyl-1-cyclopentanoic acid, hydrochloride salt]",time-dependent inhibition of GABA-AT (in words),GABA-AT [3],potent time-dependent inhibitors of GABA-AT
C=CC(N)CCC(=O)O (stereo not shown) [vigabatrin],share of total inactivation accounted for by pathway a (Michael addition),GABA-AT [2],70-75%
